In US20230137092A1, “Composition and Method for the Treatment and Prevention of Cardiac, Pulmonary, Dermal, and Renal Fibrosis” (EMERALD HEALTH PHARMACEUTICALS INC., priority 2020, published 2023):

Legend:
[1] = tested on: Ang II-induced renal fibrosis; assay: Ang II-induced renal fibrosis, preventive model, Sirius Red; format: in vivo, mouse; conditions: Ang II 1.0 mg kg^- min^- two weeks, 20 mg/kg oral gavage
Experimental: Ang II is the main peptide of the renin angiotensin system and a renal growth factor, inducing hyperplasia/hypertrophy depending on the cell type, and it induces renal fibrosis. Renal fibrosis was induced in mice by infusion of Ang II (1.0 mg kg^− min^−) for two weeks. The treatment with the compound of Formula (VIII) by oral gavage was the same as describe in Example 2. After two weeks of treatment, the mice were sacrificed under ether anesthesia. Kidney samples were collected and fixed in 4% paraformaldehyde and embedded in paraffin. The paraffin sections (5 μm) were stained with Sirius Red for evaluation of fibrosis. Subcutaneous Ang II infusion induced a significant increase of collagen content and in the mice treated with compound, the induction of fibrosis in the kidney is prevented (FIG. 10).

[2] = Weight and behaviour observation during the therapeutic Ang II protocol; format: in vivo, mouse; conditions: 20 mg/kg daily oral gavage
Experimental: (§1) For the therapeutic model, infusion of Ang II for four weeks and the compound of Formula (VIII) (20 mg/kg) was administrated after two weeks of pump implantation. Subcutaneous infusion of Ang II using ALZET osmotic minipumps was used to study the preventive effects of the compound ALZET® osmotic minipumps (Model #2004, Charles Rives, Barcelona, Spain) delivering of Ang II (500 ng kg^−1 min^−1) (Sigma-Aldrich, Madrid, Spain) for four weeks. Compound treatment was daily administered in parallel, two weeks after the implantation of the subcutaneous pump, beneath the midscapular loose skin and consisted of daily oral gavage of compound of Formula (VIII) (20 mg/kg) or vehicle (Corn Oil/Maisine CC, 1/1). Mice were acclimated to manipulators for a week previously to the experiments in order to reduce stress and allow the detection of subtle changes in behavior by researchers. […] Neither piloerection nor hunched appearances were appreciated during the experimental procedures. Mice were sacrificed by cervical dislocation and the heart, aorta, kidney, and lung were removed and processed for histological examination or were frozen for further analysis.

[3] = tested on: cardiac myofibroblast proliferation; assay: Ki67 immunostaining of left ventricle sections (myofibroblast proliferation), Ang II preventive model; format: in vivo, mouse; conditions: two weeks after Ang II infusion; ###p<0.001 versus Ang II group
Experimental: Proliferation of fibroblast is an important event of Ang II-induced fibrosis and plays an important role in cardiac fibrosis. […] Ki 67 is a protein that is encoded by the MKI67 gene and is a cellular marker for proliferation. Cardiac tissue sections ([…]) were deparaffinized and boiled for 10 minutes in sodium citrate buffer (10 mM, pH 6.0) (Sigma-Aldrich, Madrid, Spain) for antigen retrieval. The sections were then incubated in a PBS washing buffer containing 0.1% Triton X-100 (Sigma-Aldrich, Madrid, Spain) three times for 10 minutes. Nonspecific binding was blocked with 3% bovine serum albumin (BSA) (Sigma-Aldrich, Madrid, Spain). The sections were incubated overnight at 4° C. with Ki 67 antibody (1:100 dilution, ab15580, Abcam, Cambridge, UK). After three washes for 10 minutes each in wash buffer, slides were incubated with secondary antibody anti-rabbit Texas Red (1:100 dilution, #A-6399, Thermo Fischer Scientific, Waltham, Mass., USA) for 1 hour at room temperature in the dark. […] All images were acquired using a spectral confocal laser-scanning microscope LSM710, (Zeiss, Jena, Germany) with a 63× Plan-Apochromat oil immersion lens and quantified in 10-15 randomly chosen fields using ImageJ software (rsb.info.nih.gov/ij/).

[4] = tested on: Ang II-induced cardiac fibrosis; assay: Ang II therapeutic model: perivascular myocardial collagen deposition; format: in vivo, mouse; conditions: Ang II 500 ng kg^- min^- 28 days, 20 mg/kg oral during last 14 days, ##p<0.01 versus Ang II group
Experimental: as §1

[5] = tested on: ERK1+2; assay: Ang II-induced ERK1+2 phosphorylation in hICF, immunoblot; format: cell-based, human; conditions: hICF preincubated with compound, Ang II for 30 minutes
Experimental: The effect of compound of Formula (VIII) on Ang II signaling pathways in hICF was investigated. ERK1+2 and NFAT activation are two pathways activated by Ang-II (Wakatsuki et al., 2004, Trends Biochem Sci, 29:609-617). hICF were preincubated with compound of Formula (VIII), treated with Ang II for 30 minutes, washed with PBS and proteins extracted in 50 μL of lysis buffer (50 mM Tris-HCl pH 7.5, 150 mM NaCl, 1% (v/v) NP-40, 10% (v/v) glycerol, 10 mM NaF, 1 mM Na3VO4, aprotinin (10 μg/ml), leupeptine (10 μg/ml), pepstatin (1 μg/ml) and 1 mM PMSF saturated). Separated proteins in 10% SDS/PAGE gels were transferred to PVDF membranes and blocked in TBS solution containing 0.1% Tween 20 and 5% bovine serum albumin (BSA) for 1 hour at room temperature. Immunodetection of specific proteins was carried out by incubation with primary antibodies against p-ERK (1:1000; #4695 Cell Signaling Technology) and ERK (1:1000, M5670, Sigma). Membranes were incubated with horseradish peroxidase-conjugated secondary antibody was added and proteins detected by chemiluminescence system (GE Healthcare Europe GmbH). Compound of Formula (VIII) inhibited Ang II-induced ERK1+2 phosphorylation (FIG. 16B).

[6] = Weight and behaviour observation during the preventive Ang II protocol; format: in vivo, mouse; conditions: 20 mg/kg daily oral gavage
Experimental: Ang II causes myocardial fibrosis in a short period of time (Sopel M et al., 2011, Lab. Invest., 91:565-578) characterized by collagen accumulation and after 14 days of Ang II infusion (Sigusch H H et al., 1996, Cardiovascular Research, 31:546-554). […] Subcutaneous infusion of Ang II using ALZET® osmotic pumps was used to study compound preventive effects. ALZET® osmotic minipumps (Model #2004, Charles Rives, Barcelona, Spain) delivering of Ang II (1.0 mg kg^− min^−) (Sigma-Aldrich, Madrid, Spain) for two weeks. Compound treatment was daily administered in parallel, one day before of the implantation of the subcutaneous pump, beneath the mid scapular loose skin and consisted of daily oral gavage of compound (20 mg/kg) or vehicle (Corn Oil/Maisine CC, 1/1). Mice were acclimated to manipulators for a week previously to the experiments in order to reduce stress and allow the detection of subtle changes in behavior by researchers. […] Neither piloerection nor hunched appearances were appreciated during the experimental procedures. Mice were sacrificed by cervical dislocation and the heart, aorta, skin, and kidney were removed and processed for histological examination or were frozen for further analysis.

[7] = tested on: inflammatory and fibrotic marker mRNAs in heart; assay: Real-time quantitative PCR of inflammatory and fibrotic markers in heart, Ang II preventive model; format: in vivo, mouse; conditions: Ang II infused mice; 2-ΔΔCt method

SMILES: C=C(C)C1CCC(C)=C[C@H]1C1=C(O)C(=O)C(CCCCC)=C(NCc2ccccc2)C1=O (some centres unmarked) [Formula (VIII)]
- induction of fibrosis in the kidney (collagen content) [1]: prevented
- behavioral changes [2]: No behavioral changes
- mice weight ([2]; between experimental groups): no significant changes
- myofibroblast proliferation in left ventricle (Ki67-positive cells) [3]: reduced
- Ang II perivascular myocardial collagen deposition [4]: reduced
- Ang II-induced ERK1+2 phosphorylation [5]: inhibited
- behavioral changes [6]: No behavioral changes
- mice weight ([6]; between experimental groups): no significant changes
- IL1β expression level in left ventricle [7]: significantly reduced
- IL6 expression level in left ventricle [7]: significantly reduced
- TNC expression level in left ventricle [7]: significantly reduced
